In US8530408B2, “Substrates of N-end rule ubiquitylation and methods for measuring the ubiquitylation of these substrate” (Meso Scale Technologies LLC, priority 2002, dated 2013):

Tests used:
aprataxin ubiquitylation = experiment: ECL assay for N-end rule ubiquitylation of aprataxin; type: biochemical; settings: 1 mM inhibitor (equivalent concentrations); rabbit reticulocyte lysate; 50 μM MG-132; 30° C.; FIG. 4(A),(B)
Description: (§1) Protein was produced from the plasmid DNA in a transcription-translation reaction mixture containing rabbit reticulocyte lysate and SP6 RNA polymerase (TNT SP6 Quick Mix, Promega) and that was further supplemented with 20 μM methionine, 8-30 μg/ml plasmid DNA, 20 μg/ml biotinylated Lys-tRNA (transcend tRNA, Promega), and 50 μM of the proteosome inhibitor MG-132 (Calbiochem) in a total volume of 12.5 μl. Ubiquitylation of newly synthesized proteins occurred in the same reaction mixtures and was driven by the ubiquitylation system present in reticulocyte lysates. An ECL-based ubiquitylation assay (described below) was used to determine if the newly synthesized protein was ubiquitylated. […]
(§2) The reactions were allowed to proceed for a desired period of time at 30° C. In some experiments, several reaction time points were analyzed. […] Thereafter the plate was washed three times with 20 mM Tris-HCl, 0.004% Triton X-100 followed by addition of 150 μl of a buffered solution containing tripropylamine (MSD Read Buffer, Meso-Scale Discovery, Gaithersburg Md.) into each well. ECL signals from labels bound to the electrode surfaces were measured using a Sector HTS instrument.
Aprataxin was produced using IMAGE clone #3994375 and analyzed for its ability to act as an N-end rule substrate by ECL assay and by gel electrophoresis as described in the Materials and Methods.

HSPC144 ubiquitylation = experiment: ECL assay for N-end rule ubiquitylation of HSPC144; type: biochemical; settings: 1 mM inhibitor; rabbit reticulocyte lysate; 50 μM MG-132; 30° C.; FIG. 8(A),(B)
Description: as §1, §2
HSPC144 was produced using IMAGE clone #3907737 and analyzed for its ability to act as an N-end rule substrate by ECL assay as described in the Materials and Methods.

PinX1 ubiquitylation = experiment: ECL assay for N-end rule ubiquitylation of PinX1; type: biochemical; settings: 1 mM inhibitor; rabbit reticulocyte lysate; 50 μM MG-132; 30° C.; FIG. 9(A),(B)
Description: as §1, §2
PinX1 was produced using IMAGE clone #3911679 and analyzed for its ability to act as an N-end rule substrate by ECL assay as described in the Materials and Methods.

HMGN2 ubiquitylation = experiment: ECL assay for N-end rule ubiquitylation of HMGN2; type: biochemical; settings: 1 mM inhibitor; rabbit reticulocyte lysate; 50 μM MG-132; 30° C.; FIG. 6(A),(B)
Description: as §1, §2
High Mobility Group Chromosomal Protein 17 (now renamed HMGN2) was produced using IMAGE clone #3455121 and analyzed for its ability to act as an N-end rule substrate by ECL assay as described in Materials and Methods. […]

HMGN3 ubiquitylation = experiment: ECL assay for N-end rule ubiquitylation of HMGN3; type: biochemical; settings: 1 mM inhibitor; HMGN3 from clones #3890883 and #4749335, effect most pronounced for clone #4749335; rabbit reticulocyte lysate; 50 μM MG-132; 30° C.; FIG. 10
Description: as §1, §2
HMGN3 was produced using IMAGE clones #3890883 and #4749335 and analyzed for its ability to act as an N-end rule substrate by ECL assay as described in Materials and Methods.

RGS4 ubiquitylation = experiment: ECL assay for N-end rule ubiquitylation of RGS4; type: biochemical; settings: 1 mM inhibitor; rabbit reticulocyte lysate; 50 μM MG-132; 30° C.; FIG. 2(A),(B)
Description: as §1
as §2, with “instrument. […]” for “instrument.”

cdc6 ubiquitylation = experiment: ECL assay for N-end rule ubiquitylation of CDC6; type: biochemical; settings: 1 mM inhibitor; rabbit reticulocyte lysate; 50 μM MG-132; 30° C.; FIG. 7(A),(B)
Description: as §1, §2
Cell Cycle Controller cdc6 was produced using IMAGE clone #3867414 and analyzed for its ability to act as an N-end rule substrate by ECL assay and by gel electrophoresis as described in the Materials and Methods.

[1] = test system: synaptotagmin-like protein 2 ubiquitylation; experiment: ECL assay for N-end rule ubiquitylation of synaptotagmin-like protein 2; type: biochemical; settings: 1 mM inhibitor; rabbit reticulocyte lysate; 50 μM MG-132; 30° C.; FIG. 5(A),(B)
Description: as §1, §2
Synaptotagmin-like protein 2 was produced using IMAGE clone #3887550 and analyzed for its ability to act as an N-end rule substrate by ECL assay and by gel electrophores is as described in the Materials and Methods.

tau ubiquitylation = experiment: ECL assay for N-end rule ubiquitylation of tau; type: biochemical; settings: 1 mM inhibitor; rabbit reticulocyte lysate; 50 μM MG-132; 30° C.; FIG. 3(A),(B)
Description: as §1
as §2, with “instrument. […]” for “instrument.”

[2] = test system: RGS4 ubiquitin/proteosome degradation via N-end rule pathway; experiment: Denaturing gel analysis of N-end rule-dependent degradation of RGS4; type: biochemical, rabbit; settings: [14C]-lysine, MG-132 omitted, SDS-PAGE time course, 30° C.; FIG. 2(C)
Description: Proteins were synthesized as described in the previous section except that biotinylated Lys-tRNA was substituted with [^14C]-lysine, and MG-132 was omitted. The reactions were incubated at 30° C. for indicated times. They were stopped by transferring of aliquots of reactions into SDS-sample buffer. The samples were heated for 5 min at 95° C. and fractionated by SDS-PAGE on 4-20% gradient polyacrylamide gels. Gels were soaked in Amplify™ fluorographic reagent (Amersham Pharmacia Biotech), dried and exposed to X-ray films.
RGS4 was produced and characterized as an N-end rule substrate as described in the Materials and Methods section. RGS4 is a known Type 1 N-end rule ubiquitylation substrate (Davydov and Varshavsky, 2000, J. Biol. Chem., 275: 22931).

| Substance | % of aprataxin ubiquitylation in the presence of specific N-end rule inhibitors compared to the reaction in the absence of the inhibitors (aprataxin ubiquitylation) | % of HSPC144 ubiquitylation in the presence of specific N-end rule inhibitors compared to the reaction in the absence of the inhibitors (HSPC144 ubiquitylation) | % of PinX1 ubiquitylation in the presence of specific N-end rule inhibitors compared to the reaction in the absence of the inhibitors (PinX1 ubiquitylation) | % of HMGN2 ubiquitylation in the presence of specific N-end rule inhibitors compared to the reaction in the absence of the inhibitors (HMGN2 ubiquitylation) | % of HMGN3 ubiquitylation in the presence of specific N-End Rule inhibitors compared to the reaction in the absence of the inhibitors (HMGN3 ubiquitylation) | % of RGS4 ubiquitylation in the presence of specific N-end rule inhibitors compared to the reaction in the absence of the inhibitors (RGS4 ubiquitylation) | % of cdc6 ubiquitylation in the presence of specific N-end rule inhibitors compared to the reaction in the absence of the inhibitors (cdc6 ubiquitylation) | % of synaptotagmin-like protein 2 ubiquitylation in the presence of specific N-end rule inhibitors compared to the reaction in the absence of the inhibitors [1] | % of tau ubiquitylation in the presence of specific N-end rule inhibitors compared to the reaction in the absence of the inhibitors (tau ubiquitylation) | accumulation of the C-terminal fragment of RGS4 having the N-terminal Met removed (autoradiogram) [2] |
| --- | --- | --- | --- | --- | --- | --- | --- | --- | --- | --- |
| Trp-Ala | little to no effect | no effect | no effect | little to no effect | little effect | little to no effect | smaller effect | inhibit synaptotagmin-like protein 2 ubiquitylation to a similar extent | little to no effect |  |
| Arg-β-Ala | inhibit aprataxin ubiquitylation to a similar extent | inhibit HSPC ubiquitylation to a similar extent | inhibit PinX1 ubiquitylation to a similar extent | inhibit HMGN2 ubiquitylation to a similar extent | inhibit HMGN3 ubiquitylation to a greater extent | inhibit RGS4 ubiquitylation to a similar extent | inhibit cdc6 ubiquitylation to a similar extent | little to no effect | inhibit tau ubiquitylation to a similar extent | time dependent accumulation exclusively in the presence of Arg-β-Ala inhibitor |
